Source: ChEMBL document CHEMBL5518204, “Discovery and Proof of Concept of Potent Dual Polθ/PARP Inhibitors for Efficient Treatment of Homologous Recombination-Deficient Tumors” (J Med Chem, 2024)
Calls of active or inactive are those of the source. The calls are words filed in the database; no cut-off is given here.

Legend:
[1] = Apparent volume of distribution in Sprague-Dawley rat at 1 mg/kg, iv by LC-MS/MS analysis; type: ADME, organism-based; details: in vivo, read-out: Vz
MDA-MB-231 [2] = test: Antitumor activity against human MDA-MB-231 cells xenografted in BALB/c mouse assessed as tumor growth inhibition at 20 mg/kg, ip administered for 21 days; type: functional; details: MDA-MB-231, 504 h, time 21 day, read-out: TGI
MDA-MB-231 [3] = test: Antiproliferative activity against human MDA-MB-231 cells incubated for 4 days by MTT assay; type: functional, cell-based; details: time 4.0 day
[4] = target: T1, Protein mono-ADP-ribosyltransferase PARP10 (Homo sapiens, UniProt Q53GL7); test: Inhibition of PARP10 (unknown origin)
T1 sequence (Q53GL7 whole entry): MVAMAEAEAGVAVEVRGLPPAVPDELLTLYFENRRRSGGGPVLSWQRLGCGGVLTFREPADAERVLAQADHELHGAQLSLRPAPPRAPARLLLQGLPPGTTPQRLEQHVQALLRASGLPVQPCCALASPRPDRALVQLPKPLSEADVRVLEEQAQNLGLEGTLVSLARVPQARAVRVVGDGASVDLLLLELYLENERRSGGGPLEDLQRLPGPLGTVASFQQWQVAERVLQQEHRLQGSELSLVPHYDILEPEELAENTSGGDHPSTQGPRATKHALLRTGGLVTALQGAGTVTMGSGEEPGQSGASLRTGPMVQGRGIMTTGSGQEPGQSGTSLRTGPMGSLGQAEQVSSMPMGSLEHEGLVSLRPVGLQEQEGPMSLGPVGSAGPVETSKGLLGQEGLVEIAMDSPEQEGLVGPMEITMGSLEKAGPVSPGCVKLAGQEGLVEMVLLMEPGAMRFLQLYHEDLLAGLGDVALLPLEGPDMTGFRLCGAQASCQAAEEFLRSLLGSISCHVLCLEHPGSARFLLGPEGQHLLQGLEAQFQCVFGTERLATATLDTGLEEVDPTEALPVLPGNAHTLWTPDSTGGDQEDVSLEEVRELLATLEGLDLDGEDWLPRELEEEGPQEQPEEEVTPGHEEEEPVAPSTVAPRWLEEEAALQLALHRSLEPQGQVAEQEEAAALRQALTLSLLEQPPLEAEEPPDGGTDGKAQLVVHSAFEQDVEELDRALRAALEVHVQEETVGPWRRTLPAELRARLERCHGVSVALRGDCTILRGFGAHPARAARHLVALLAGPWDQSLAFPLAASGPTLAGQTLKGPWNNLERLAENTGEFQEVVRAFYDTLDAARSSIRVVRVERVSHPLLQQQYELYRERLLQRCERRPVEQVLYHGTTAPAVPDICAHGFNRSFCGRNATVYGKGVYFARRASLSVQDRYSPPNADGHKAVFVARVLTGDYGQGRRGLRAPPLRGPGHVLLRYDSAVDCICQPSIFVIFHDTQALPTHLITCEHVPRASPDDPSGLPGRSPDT

[5] = Toxicity in BALB/c mouse xenografted with human MDA-MB-231 cells assessed as kidney damage at 20 to 40 mg/kg, ip administered for 21 days by H and E staining based analysis; type: organism-based; details: in vivo, 504 h, dose 20-40 mg/kg, time 21 day
MCF-10A = test: Effect on PARP1 expression in human MCF-10A cells by immunoblotting analysis; type: functional, cell-based
MDA-MB-231 [6] = test: Antitumor activity against human MDA-MB-231 cells xenografted in ip dosed BALB/c mouse assessed as increase in gammaH2Ax expression administered for 21 days; type: functional, organism-based; details: dose 20-40 mg/kg, time 21.0 day
[7] = target: T2, Poly [ADP-ribose] polymerase tankyrase-1 (Homo sapiens, UniProt O95271); test: Inhibition of PARP5a (unknown origin)
T2 sequence (O95271 whole entry): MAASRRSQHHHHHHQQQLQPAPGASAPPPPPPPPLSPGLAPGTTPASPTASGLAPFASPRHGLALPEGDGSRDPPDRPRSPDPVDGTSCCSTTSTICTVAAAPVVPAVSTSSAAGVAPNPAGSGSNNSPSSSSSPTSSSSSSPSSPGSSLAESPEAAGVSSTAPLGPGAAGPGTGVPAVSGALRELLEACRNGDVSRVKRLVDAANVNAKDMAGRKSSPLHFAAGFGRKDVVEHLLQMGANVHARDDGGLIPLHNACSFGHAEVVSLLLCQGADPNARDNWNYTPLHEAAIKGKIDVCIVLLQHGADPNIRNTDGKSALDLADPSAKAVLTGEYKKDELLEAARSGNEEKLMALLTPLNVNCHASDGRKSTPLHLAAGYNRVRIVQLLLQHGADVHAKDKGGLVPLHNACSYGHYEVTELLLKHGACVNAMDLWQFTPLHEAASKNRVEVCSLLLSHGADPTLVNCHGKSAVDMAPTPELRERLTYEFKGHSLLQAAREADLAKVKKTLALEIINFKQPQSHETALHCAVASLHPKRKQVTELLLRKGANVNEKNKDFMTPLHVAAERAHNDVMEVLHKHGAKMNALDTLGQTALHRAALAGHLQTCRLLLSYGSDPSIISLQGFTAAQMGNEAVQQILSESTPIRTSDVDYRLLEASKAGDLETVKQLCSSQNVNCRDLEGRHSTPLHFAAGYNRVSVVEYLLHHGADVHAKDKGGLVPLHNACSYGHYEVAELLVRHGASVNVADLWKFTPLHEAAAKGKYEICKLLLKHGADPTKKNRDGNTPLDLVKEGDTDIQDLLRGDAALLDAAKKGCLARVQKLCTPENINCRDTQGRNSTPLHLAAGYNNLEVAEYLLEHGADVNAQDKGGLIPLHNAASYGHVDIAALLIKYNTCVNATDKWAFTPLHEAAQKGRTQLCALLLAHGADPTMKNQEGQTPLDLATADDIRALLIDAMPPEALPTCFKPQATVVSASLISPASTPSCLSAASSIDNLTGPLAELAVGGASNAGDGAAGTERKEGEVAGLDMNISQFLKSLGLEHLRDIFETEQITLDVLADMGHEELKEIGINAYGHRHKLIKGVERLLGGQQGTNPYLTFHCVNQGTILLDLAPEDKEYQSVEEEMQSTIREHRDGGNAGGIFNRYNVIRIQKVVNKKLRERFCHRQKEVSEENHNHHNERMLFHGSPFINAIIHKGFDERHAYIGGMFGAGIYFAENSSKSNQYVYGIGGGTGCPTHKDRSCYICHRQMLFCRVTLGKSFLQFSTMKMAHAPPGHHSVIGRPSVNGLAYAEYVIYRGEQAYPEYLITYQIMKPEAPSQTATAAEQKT

MDA-MB-231 [8] = test: Induction of cell cycle arrest in human MDA-MB-231 cells assessed as accumulation of cells at G2/M phase at 2 uM incubated for 3 days by PI staining based flow cytometric analysis; type: functional; details: time 3.0 day
[9] = Tmax in Sprague-Dawley rat at 1 mg/kg, iv by LC-MS/MS analysis; type: ADME, organism-based; details: in vivo
DNA polymerase theta = DNA polymerase theta (Homo sapiens, UniProt O75417); test: Inhibition of DNA polymerase theta mediated TMEJ repair activity in HEK293 cells incubated for 24 hrs by Nano-glo luciferase assay; type: cell-based
Chain of DNA polymerase theta (O75417 whole entry): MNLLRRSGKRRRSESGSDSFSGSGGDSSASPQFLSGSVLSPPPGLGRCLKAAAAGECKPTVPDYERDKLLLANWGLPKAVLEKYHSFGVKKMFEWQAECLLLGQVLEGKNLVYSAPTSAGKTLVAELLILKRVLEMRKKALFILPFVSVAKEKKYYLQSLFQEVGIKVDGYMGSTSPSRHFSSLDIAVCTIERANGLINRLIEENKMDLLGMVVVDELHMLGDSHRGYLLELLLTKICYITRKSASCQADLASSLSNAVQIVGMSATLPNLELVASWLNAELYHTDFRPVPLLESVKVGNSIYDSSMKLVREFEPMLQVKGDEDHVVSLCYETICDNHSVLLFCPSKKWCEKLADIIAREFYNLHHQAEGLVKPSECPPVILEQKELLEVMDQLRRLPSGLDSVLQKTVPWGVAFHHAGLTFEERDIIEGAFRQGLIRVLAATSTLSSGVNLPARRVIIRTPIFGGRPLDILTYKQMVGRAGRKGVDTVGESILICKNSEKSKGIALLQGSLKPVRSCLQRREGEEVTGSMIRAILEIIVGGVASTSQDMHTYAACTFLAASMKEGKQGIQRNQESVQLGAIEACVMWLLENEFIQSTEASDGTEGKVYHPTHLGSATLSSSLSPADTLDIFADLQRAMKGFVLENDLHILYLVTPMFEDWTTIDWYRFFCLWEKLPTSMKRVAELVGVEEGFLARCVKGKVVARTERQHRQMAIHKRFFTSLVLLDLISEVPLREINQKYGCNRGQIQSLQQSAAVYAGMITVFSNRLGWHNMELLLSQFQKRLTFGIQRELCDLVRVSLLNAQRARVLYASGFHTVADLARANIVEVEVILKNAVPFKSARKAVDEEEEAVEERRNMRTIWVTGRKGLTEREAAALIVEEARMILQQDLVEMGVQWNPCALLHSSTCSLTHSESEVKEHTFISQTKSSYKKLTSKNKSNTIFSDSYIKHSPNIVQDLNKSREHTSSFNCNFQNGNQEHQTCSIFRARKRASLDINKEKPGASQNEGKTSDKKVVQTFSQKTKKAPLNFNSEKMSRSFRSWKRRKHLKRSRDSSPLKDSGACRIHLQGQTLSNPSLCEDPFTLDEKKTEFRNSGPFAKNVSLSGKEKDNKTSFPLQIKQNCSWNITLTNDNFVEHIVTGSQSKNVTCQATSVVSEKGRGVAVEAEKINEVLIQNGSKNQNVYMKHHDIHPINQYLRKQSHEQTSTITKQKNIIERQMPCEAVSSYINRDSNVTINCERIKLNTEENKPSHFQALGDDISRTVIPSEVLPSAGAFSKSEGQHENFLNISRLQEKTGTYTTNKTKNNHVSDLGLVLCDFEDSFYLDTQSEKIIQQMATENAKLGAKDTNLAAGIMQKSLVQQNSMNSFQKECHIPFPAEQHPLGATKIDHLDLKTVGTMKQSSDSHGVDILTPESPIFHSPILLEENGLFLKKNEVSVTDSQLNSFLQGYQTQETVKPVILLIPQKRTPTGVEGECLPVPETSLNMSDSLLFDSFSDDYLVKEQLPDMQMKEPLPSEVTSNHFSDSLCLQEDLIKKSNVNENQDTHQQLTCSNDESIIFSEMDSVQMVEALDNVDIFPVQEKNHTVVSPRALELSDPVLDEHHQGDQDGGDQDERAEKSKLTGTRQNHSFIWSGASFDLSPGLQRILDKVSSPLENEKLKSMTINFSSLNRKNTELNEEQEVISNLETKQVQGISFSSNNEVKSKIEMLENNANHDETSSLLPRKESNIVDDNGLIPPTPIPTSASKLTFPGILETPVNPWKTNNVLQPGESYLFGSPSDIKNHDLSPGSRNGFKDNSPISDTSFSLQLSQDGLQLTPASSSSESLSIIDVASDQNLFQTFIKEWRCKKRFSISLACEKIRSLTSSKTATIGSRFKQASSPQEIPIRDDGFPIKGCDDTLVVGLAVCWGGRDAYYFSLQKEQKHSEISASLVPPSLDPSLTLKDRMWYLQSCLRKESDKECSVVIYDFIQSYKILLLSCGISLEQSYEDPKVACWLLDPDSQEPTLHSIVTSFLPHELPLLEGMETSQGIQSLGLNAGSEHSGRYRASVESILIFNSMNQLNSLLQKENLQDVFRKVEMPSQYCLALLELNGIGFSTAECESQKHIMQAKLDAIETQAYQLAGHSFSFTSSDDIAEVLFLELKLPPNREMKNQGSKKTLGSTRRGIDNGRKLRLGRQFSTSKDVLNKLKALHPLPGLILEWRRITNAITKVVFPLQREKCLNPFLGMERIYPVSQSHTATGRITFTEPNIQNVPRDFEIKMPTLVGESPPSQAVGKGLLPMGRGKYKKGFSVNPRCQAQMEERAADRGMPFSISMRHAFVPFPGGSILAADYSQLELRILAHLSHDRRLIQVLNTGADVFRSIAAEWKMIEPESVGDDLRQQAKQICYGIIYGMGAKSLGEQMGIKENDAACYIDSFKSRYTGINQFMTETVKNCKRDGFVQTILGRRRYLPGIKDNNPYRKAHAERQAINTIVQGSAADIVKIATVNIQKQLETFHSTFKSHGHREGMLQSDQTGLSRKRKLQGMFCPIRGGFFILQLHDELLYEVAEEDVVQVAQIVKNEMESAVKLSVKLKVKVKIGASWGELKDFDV

Vd [1]: 3.97 L/kg
IC50 [4]: 1100 nM
IC50 [7]: 206 nM
Tmax [9]: 4.8 min
IC50 (DNA polymerase theta): 88 nM
SMILES: COc1ccc(Cl)cc1-c1cc(C)ncc1C(=O)Nc1nnc(OCC2CCN(C(=O)c3cc(Cc4n[nH]c(=O)c5ccccc45)ccc3F)CC2)s1
inhibition in vivo at 20 mg/kg (MDA-MB-231 [2]): 40.6%
Activity (MDA-MB-231 [3]): Active
Activity [5]: Non-Toxic
Activity (MCF-10A): Active
Activity (MDA-MB-231 [6]): Dose-Dependent Effect
Activity (MDA-MB-231 [8]): Active
